Source: PMC12598851, “Exploiting Avidity Effects for the Discovery of Low Affinity Protein-Binding Fragments” (Journal of Medicinal Chemistry, 2025)
Like-named read-outs stand apart in the source and are kept apart here. Non-standard residues stand in square brackets, D forms with d. Residues, ends and D or L forms follow the SMILES beside them.

Key:
Rpn13 PRU = target: T1, Rpn13 PRU (Homo sapiens, UniProt Q16186); experiment: SPR, soluble compound binding to biotinylated Rpn13 PRU captured on SA chip
T1 construct: FLAG (N); His10 (C); made in house; host or cells: E. coli BL21 (DE3) codon plus RP
Experimental: 4000–5000 Ru of Biotinylated Rpn13-PRU (50 μg/mL in running buffer (20 mM phosphate buffer with 2.7 mM KCl, 137 mM NaCl, 0.05% Surfactant P20, 1 mM DTT and 1 mM EDTA)) was captured on a SA sensor chip (Cytiva). Testing compounds were evaluated using the multiple-cycle kinetic/affinity method in running buffer with indicated association and dissociation time, and a flow rate of 40 μL/min. Data was analyzed with the BIAcore Insight Evaluation Software and the binding affinities were obtained by fitting the sensor grams to the 1:1 binding kinetics, steady-state affinity models or steady-state affinity model with constant R max.

[1] = target: T2, GST-Rpn13 PRU fusion protein (UniProt P08515+Q16186); experiment: Bead-displayed fragment screen against GST-Rpn13 PRU fusion protein; type: binding, human; conditions: GST-Rpn13 PRU 500 nM, A647 anti-FLAG antibody staining
T2 construct: the human Rpn13 PRU (pleckstrin-like receptor for ubiquitin) domain is linked to the C-terminus of GST; His6 (C); made in house; host or cells: E. coli BL21 (DE3) codon plus RP
Experimental: The beads (one compound per well) were then incubated with GST-Rpn13 PRU fusion protein (500 nM) and, after washing, the amount of protein retained on the beads was measured after staining with Alexafluor-647 (A647)-labeled anti-FLAG antibody using a plate reader (Figure a). […] Next a competition experiment was performed in which the GST-Rpn13 PRU fusion protein was preincubated with excess glutathione (1 mM) to determine if the fragments, to some extent, engage the peptide-binding site of GST. […] We speculate that A8 and A88 probably bind to both GST and Rpn13, explaining the high signal in the original screen (Figure b). Finally, all five hit-displaying beads were incubated with only Alexa Fluor 647–labeled anti-FLAG antibody to confirm that the hits are not antibody binders (Figure S11).
General notes: • At each step, contents were mixed by pipetting up and down 3–5 times. • All steps following the addition of Alexa Fluor 647 anti-FLAG Tag Antibody were conducted in the dark. • Alexa Fluor 647 anti-FLAG Tag Antibody was purchased from commercial sources; (BioLengend cat #637316). […]
Each sample was transferred to a black 384-well plate in triplicate (3 × 20 μL per well). […] Fluorescence intensity was measured using a TECAN plate reader. Background fluorescence (from blank wells) was subtracted before further data analysis.

[2] = target: T3, Rpn2-binding surface of Rpn13 (GST-Rpn13 PRU) (Homo sapiens, UniProt Q16186); experiment: Competition assay with Rpn2 peptide for GST-Rpn13 PRU fusion protein; conditions: protein preincubated with Rpn2 peptide 100 μM
T3 construct: the human Rpn13 PRU (pleckstrin-like receptor for ubiquitin) domain is linked to the C-terminus of GST; His6 (C); made in house; host or cells: E. coli BL21 (DE3) codon plus RP
Experimental: As mentioned above, the Rpn13 PRU domain binds to the proteasome via association with a C-terminal peptide tail from Rpn2. […] The amount of protein retained on the resin was then evaluated using the same protocol described above.
This assay was conducted following the exact same procedure described above using two samples: GST-Rpn13 PRU (100 nM) alone, and GST-Rpn13 PRU (100 nM) that had been pretreated with Rpn2 peptide (100 μM) for 1 h at 4 °C. Each sample was added to separate wells of a microtiter plate.

SA-647 = target: T4, SA-647 (Streptomyces avidinii, UniProt P22629); experiment: Dose-dependent binding of SA-647 to bead-displayed ligands by FACS (MFI); conditions: SA-647 0.1 to 1000 nM
T4 construct: purchased ThermoFisher S3235
Experimental: We next asked if the bead binding assay could distinguish complexes with different affinities for SA. 10 μm TentaGel beads displaying compound 2, compound 3, the oxazole analogue of compound 2 (Figure S4), or the SA-binding macrocycle 1 shown in Figure a were exposed to different concentrations of SA-647 ranging from 0.1 to 1000 nM. After washing, the intensity of fluorescence retained on the beads was measured using a flow cytometer, and the results were plotted as the mean fluorescence intensity (MFI) on the beads vs the protein concentration. […] Macrocycle 1, which binds SA with a K D of about 600 nM in solution (more than 1000 times more tightly than compound 2), binds SA-647 on resin at far lower concentrations than does compound 2.

SA [3] = experiment: Affinity of macrocycle 1 for SA in solution; type: binding; conditions: KD in solution against KD of compound 2
SA [4] = conditions: in solution; cited from earlier work
Rpn13 = conditions: peptide derived from Rpn2; cited from earlier work

T3 sequence (Q16186 18-131 limits assumed): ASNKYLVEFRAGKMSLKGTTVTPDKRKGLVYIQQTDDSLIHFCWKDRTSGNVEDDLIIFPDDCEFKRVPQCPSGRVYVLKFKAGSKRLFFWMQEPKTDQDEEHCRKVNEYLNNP
T1 sequence (Q16186 18-131 limits assumed): as above
T2 sequence (P08515+Q16186 fused): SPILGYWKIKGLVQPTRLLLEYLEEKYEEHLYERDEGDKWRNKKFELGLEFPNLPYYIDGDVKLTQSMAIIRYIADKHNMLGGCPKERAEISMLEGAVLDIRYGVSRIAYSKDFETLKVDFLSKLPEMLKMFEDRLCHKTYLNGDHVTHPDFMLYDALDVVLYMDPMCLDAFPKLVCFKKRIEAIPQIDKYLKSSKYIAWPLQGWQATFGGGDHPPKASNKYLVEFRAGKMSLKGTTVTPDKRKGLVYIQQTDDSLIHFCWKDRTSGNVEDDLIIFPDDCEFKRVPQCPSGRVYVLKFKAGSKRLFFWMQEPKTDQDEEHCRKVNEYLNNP
T4 sequence (P22629 37-163 limits assumed): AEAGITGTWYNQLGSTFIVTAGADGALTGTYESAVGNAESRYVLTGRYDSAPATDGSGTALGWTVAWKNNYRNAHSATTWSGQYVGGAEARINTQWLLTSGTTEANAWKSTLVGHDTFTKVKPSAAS

With `NC(=O)CNC(=O)COCCOCCNC(=O)CNC(=O)c1ccc2nc(-c3ccncc3)[nH]c2c1` [A63] the “KD (SPR)” value (Rpn13 PRU; soluble compound, biotinylated Rpn13 PRU immobilized on SA chip) was “A similar result”, the Kd (Rpn13 PRU; supplementary CSV, solution dissociation constants, read-out: KD for Rpn13 PRU) was over 2000 µM and the “fluorescence intensity in GST-Rpn13 PRU screen” value [1] was “above-background fluorescence”. The “effect of soluble Rpn2 peptide competitor on binding of GST-Rpn13 PRU” value (“effect” for short) [2] was “strongly suppressed binding”.
For `NC(=O)CNC(=O)COCCOCCNC(=O)CNC(=O)c1cnc2[nH]ccc2c1` [A85], the Kd (Rpn13 PRU; soluble compound, biotinylated Rpn13 PRU immobilized on SA chip, read-out: KD (SPR)) was over 2000 µM, the “fluorescence intensity in GST-Rpn13 PRU screen” value [1] was “above-background fluorescence” and the “effect” value [2] was “strongly suppressed binding”.
In the case of `NC(=O)[C@H]1CSCc2cccc(c2)C(=O)N(Cc2cccnc2)Cc2nc(cs2)C(=O)N(Cc2ccc(F)c(F)c2)Cc2nc(co2)C(=O)N1` [Compound 1], the “dose-dependent binding of SA-647 (MFI by flow cytometer)” value (SA-647) is given as “dose-dependent binding”, the “tighter binding to SA than compound 2” value (SA [3]) is given as “more than 1000 times” and the Kd (SA [4]) is given as about 0.6 µM.
In the case of `CC[C@H](C)[C@H](NC(=O)[C@H](Cc1ccc(O)cc1)NC(=O)[C@@H](CCC(=O)O)NC(=O)[C@H](Cc1ccccc1)NC(=O)[C@@H]1CCCN1C(=O)[C@H](CCC(=O)O)NC(=O)[C@@H]1CCCN1C(=O)[C@@H]1CCCN1C(=O)[C@H](CCC(=O)O)NC(=O)[C@@H]1CCCN1C(=O)[C@@H](CCC(=O)O)NC(=O)[C@H](CCC(N)=O)NC(=O)[C@@H]1CCCN1)C(=O)N[C@@H](CC(=O)O)C(N)=O` [Rpn2 peptide, reference compound] (H-PQ[dE]PEPPEPF[dE]YID-NH2), the “effect” value [2] is given as “strongly suppressed binding” and the “affinity for Rpn13” value (Rpn13) is given as “nanomolar affinity”.
